{"source": "ChEMBL document CHEMBL6074633", "about": "“Assessing the inhibitory effects of some secondary amines, thioureas and 1,3-dimethyluracil conjugates of (-)-cytisine and thermopsine on the RNA-dependent RNA polymerase of SARS-CoV-1 and SARS-CoV-2” (Bioorg Med Chem Lett, 2024)", "key": {"[1]": {"system": "SARS-CoV-2", "experiment": "Antiviral activity against SARS CoV-2 replicon-based SRIP", "assay_type": "functional, organism-based", "settings": "Severe acute respiratory syndrome coronavirus 2"}, "[2]": {"molecular_target": "Replicase polyprotein 1ab (Severe acute respiratory syndrome coronavirus 2) (UniProt P0DTD1)", "experiment": "Inhibition of SARS CoV-2 RdRp at 10 uM incubated for 2 hrs by fluorescence based assay relative to control"}, "[3]": {"experiment": "in vitro", "settings": "human, Calu-3 cells"}, "[4]": {"system": "SARS-CoV-2", "assay_type": "functional, organism-based", "settings": "Severe acute respiratory syndrome coronavirus 2; Calu-3; dose <= 1.0 µM, time 96.0 hrs"}, "[5]": {"experiment": "Cytotoxicity against human Calu-3 cells assessed as cell viability incubated for 96 hrs by MTT assay", "assay_type": "toxicity, cell-based"}, "[6]": {"system": "SARS-CoV", "assay_type": "functional, organism-based", "settings": "Severe acute respiratory syndrome-related coronavirus; Calu-3; dose <= 1.0 µM, time 96.0 hrs"}, "[7]": {"molecular_target": "Replicase polyprotein 1ab (Severe acute respiratory syndrome coronavirus 2) (UniProt P0DTD1)", "experiment": "(§1) Inhibition of SARS CoV-2 RdRp incubated for 2 hrs by fluorescence based assay"}, "[8]": {"molecular_target": "Replicase polyprotein 1ab (Severe acute respiratory syndrome coronavirus 2, UniProt P0DTD1)", "experiment": "as §1"}, "[9]": {"system": "SARS-CoV-2", "assay_type": "functional, organism-based"}, "[10]": {"system": "SARS-CoV", "assay_type": "functional, organism-based", "settings": "Severe acute respiratory syndrome-related coronavirus"}, "[11]": {"system": "SARS-CoV", "assay_type": "functional, organism-based", "settings": "Severe acute respiratory syndrome-related coronavirus; Calu-3; dose <= 1.0 µM, time 120.0 hrs"}, "[12]": {"system": "SARS-CoV-2", "assay_type": "functional, organism-based", "settings": "Severe acute respiratory syndrome coronavirus 2; Calu-3; dose <= 1.0 µM, time 120.0 hrs"}}, "note": "The source made the active and inactive calls. The calls are words filed in the database; no cut-off is given here.", "data": [{"smiles": "CCC(CC)COC(=O)[C@H](C)N[P@](=O)(OC[C@H]1O[C@@](C#N)(c2ccc3c(N)ncnn23)[C@H](O)[C@@H]1O)Oc1ccccc1", "note": "[REMDESIVIR]", "values": [{"measurement": "EC50", "setting": "[1]", "result": 170, "unit": "nM"}]}, {"smiles": "O=c1cccc2n1C[C@H]1C[C@@H]2CN(C(=S)Nc2ccccc2)C1", "values": [{"measurement": "inhibition", "setting": "[2]", "result": "< 38", "unit": "%"}]}, {"smiles": "CN1C[C@@H]2C[C@H](C1)c1ccc(NCc3ccccc3O)c(=O)n1C2", "values": [{"measurement": "inhibition", "setting": "[2]", "result": "< 38", "unit": "%"}]}, {"smiles": "CN1C[C@@H]2C[C@H](C1)c1ccc(NC/C=C/c3ccccc3)c(=O)n1C2", "values": [{"measurement": "inhibition", "setting": "[2]", "result": "< 38", "unit": "%"}]}, {"smiles": "C=CCNC(=S)N1C[C@@H]2C[C@H](C1)c1ccc([N+](=O)[O-])c(=O)n1C2", "values": [{"measurement": "inhibition", "setting": "[2]", "result": "< 38", "unit": "%"}]}, {"smiles": "O=c1ccc(Cl)c2n1C[C@H]1C[C@@H]2CN(C(=S)Nc2ccccc2)C1", "values": [{"measurement": "inhibition", "setting": "[2]", "result": "< 38", "unit": "%"}]}, {"smiles": "CC(C)C[C@H](NC(=O)OCc1ccccc1)C(=O)N[C@@H](C[C@@H]1CCNC1=O)C(O)S(=O)(=O)O", "note": "(some centres undefined)", "values": [{"measurement": "EC50", "setting": "[1]", "result": 170, "unit": "nM"}]}, {"smiles": "CC(C)NC(=S)Nc1ccc2n(c1=O)C[C@H]1C[C@@H]2CN(C)C1", "values": [{"measurement": "inhibition", "setting": "[2]", "result": "< 38", "unit": "%"}]}, {"smiles": "Cn1cc(CNc2ccc3n(c2=O)C[C@H]2C[C@@H]3CN(Cc3ccccc3)C2)c(=O)n(C)c1=O", "values": [{"measurement": "selectivity ratio", "setting": "[3]", "result": "> 68"}, {"measurement": "Activity", "setting": "[4]", "result": "Active"}, {"measurement": "CC50 at 96 h", "setting": "[5]", "result": "> 100000", "unit": "nM"}, {"measurement": "Activity", "setting": "[6]", "result": "Active"}, {"measurement": "inhibition", "setting": "[7]", "result": "Dose-dependent-effect"}, {"measurement": "IC50", "setting": "[8]", "result": 7800, "unit": "nM"}, {"measurement": "inhibition", "setting": "[2]", "result": 64, "unit": "%"}, {"measurement": "EC50", "setting": "[9]; Severe acute respiratory syndrome coronavirus 2, Calu-3, 96 h", "result": 1470, "unit": "nM"}, {"measurement": "Activity", "setting": "[9]; Severe acute respiratory syndrome coronavirus 2, Calu-3, dose 0.1-10 µM, time 96.0 hrs", "result": "Dose-dependent-effect"}, {"measurement": "EC50", "setting": "[10]; Calu-3, 96 h", "result": 120, "unit": "nM"}, {"measurement": "Activity", "setting": "[10]; Calu-3, dose 0.1-10 µM, time 96.0 hrs", "result": "Dose-dependent-effect"}, {"measurement": "Activity", "setting": "[11]", "result": "Active"}, {"measurement": "Activity", "setting": "[12]", "result": "Active"}]}, {"smiles": "COC(=O)CN1C[C@@H]2C[C@H](C1)c1ccc(NCc3cn(C)c(=O)n(C)c3=O)c(=O)n1C2", "values": [{"measurement": "inhibition", "setting": "[2]", "result": "< 38", "unit": "%"}]}, {"smiles": "Cn1cc(CNc2ccc3n(c2=O)C[C@H]2C[C@@H]3CN3CCCC[C@@H]23)c(=O)n(C)c1=O", "values": [{"measurement": "inhibition", "setting": "[2]", "result": "< 38", "unit": "%"}]}, {"smiles": "CCOC(=O)CNC(=S)Nc1ccc2n(c1=O)C[C@H]1C[C@@H]2CN(C)C1", "values": [{"measurement": "inhibition", "setting": "[2]", "result": "< 38", "unit": "%"}]}]}
